Experimental data reported in patent US11298402B2, “Lysosomal degradation of lipids and proteins and method of use thereof” (University of Ottawa, priority 2015, dated 2022).

What was measured:
[1] = tested on: endogenous HOPS subunits (Vps41, Vps11, Vps39); assay: Proximity ligation assay (in situ co-IP) of Arl8b with HOPS subunits; assay type: cell-based, rat; conditions: mCherry-tagged Arl8b
Experimental: (§1) In certain non-limiting examples described herein, McA-RH7777 cells stably expressing human apoB-100 and human apoC-III (designated A18-C3) were used for the studies. […] In addition, these studies, particularly those concerning EPA- or DHA-triggered lysosomal motility and CLD degradation, were also performed using primary rat hepatocytes. Transfection of plasmids encoding proteins of interest, or transfection of siRNA specific for silencing target gene expression, was achieved using the FuGENE HP Extreme reagent (Roche). Representative gene silencing siRNA sequences, which are not meant to be limiting, are described in Table 1, and plasmids encoding proteins of interest are described in Table 2. The effectiveness of siRNA silencing was verified by Western-blotting of cellular content of the target proteins, and by intracellular localization assay using siRNA-Tracker (Mirus Bioscience). Twenty-four h after plasmid transfection, or 48 h after siRNA transfection, the cells were cultured in lipid-rich media containing fetal bovine serum (20%) and OA (0.4 mM). The lipid-laden cells were switched to fresh media supplemented with OA or EPA (0.4 mM). In live imaging experiments, LipidTOX Red (Life Technologies) and LysoTracker (Life Technologies) were added to media prior to EPA treatment, to visualize lipid droplets and lysosomes, respectively. For visualizing peroxisomes, Peroxisome-GFP (Invitrogen) was introduced to the cells 24 h prior to experiments. Quantification of cell lipid contents was achieved either by direct mass measurement (HPTLC) and counting the number of lipid droplets using Image J Lipid Droplet Counter Plug-In, or indirectly by Western blot analysis of cellular content of ADRP. Secretion of apoB and TG-rich lipoprotein was determined by Western blot analysis and metabolic labeling. Mitochondrial β-oxidation was measured using MitoSOX Red (Life Technologies) in situ. Autophagic flux was determined by using Cyto-ID assay (Enzo Life Science) and by monitoring GFP-LC3 clustering in situ. Interaction of Arl8b and subunits of the HOPS complex was determined in situ by the proximity ligation assay (Olink Biosience). Cytoplasmic pH was measured using the cytosolic pHrodo indicator reagent (Invitrogen). Live imaging of fluorescent-tagged proteins was performed 1 h post-EPA treatment. Cells were also collected at the time of EPA treatment for transmission EM and tomography, as well as immuno-EM. For movies, cells were imaged at 60 sec intervals every 5 min, for a total of 30 min.
Cells were transfected with plasmids encoding RFP-tagged Arl8b^WT, Arl8b^Q75L, or Arl8b^T34N. The cells were treated with OA for 16 h (baseline condition as control). […] Quantification of signals was done in a total of 50 cells under each condition from 3 independent experiments.

[2] = tested on: McA-RH7777 cells (A18-C3); assay: Immuno-EM of Arl8b organellar association; assay type: cell-based, rat; conditions: RFP-tagged Arl8b in transfected cells, 1 h post-EPA
Experimental: For immunogold labeling, pellets of cells cultured in media containing OA or EPA (0.4 mM) were fixed with 0.5% glutaraldehyde and 4% paraformaldehyde in 0.1 M phosphate buffer (pH 7.4) and dehydrated through a series of graded ethanol dilutions, and embedded in LR White acrylic resin (London Resin Company). Ultrathin sections (80 nm) were placed on Formvar-coated nickel grids. For post-embedding immunolabeling, the sections were incubated with an anti-Arl8b antibody (Fitzgerald) for 1 h. For ^RFPArl8b-transfected cells, that primary antibody used was anti-RFP (Abcam). After washing with 0.2 M sodium cacodylate buffer containing 0.1% calcium chloride, pH 7.4, the samples were incubated with the secondary antibody conjugated with 10-nm gold particles. To increase contrast, the ultrathin sections were stained with 2% uranyl acetate for 6 min and Reynold's lead for 5 min. The grids were examined with a Tecnai 12 120 kV TEM as described above.

[3] = tested on: McA-RH7777 cells stably expressing human apoB-100 and human apoC-III (A18-C3); assay type: cell-based; conditions: for effect on EPA-induced lipid degradation (CLD turnover): cells silenced, transfected or pre-treated, then EPA 0.4 mM, 6 h; for effect on lipid degradation when co-expressed with Arl8b^WT, Arl8b^Q75L or Arl8b^T34N: co-transfected cells, 6 h post-OA or -EPA
Experimental: as §1
The A18-C3 cells were cultured in DMEM (Invitrogen) supplemented with fetal bovine serum (20%), penicillin (50 U/mL), streptomycin (50 μg/mL, Invitrogen) and Geneticin/G418 (500 μg/mL, Gibco) at 37° C. in 5% CO2. Transfection was conducted when cells were 60-70% confluence. Appropriate plasmids were mixed with FuGENE HP extreme reagent (Roche Diagnostic), according to manufacturer's protocol, and incubated for 30 min. Twenty-four h after transfection, cells were switched to lipid-rich media containing OA (0.4 mM) for additional 16 h prior to imaging and biochemical analysis. In silencing experiments, appropriate siRNAs were transfected into cells using the X-treme GENE siRNA regent (Roche Diagnostic). Localization of siRNA in transfected cells in situ was carried out using the Cy5 Label IT-siRNA Tracker (Minis Bioscience #7213) according to manufacturer's protocol. Forty-eight h after transfection, cells were switched to lipid-rich media containing OA (0.4 mM) for additional 16 h prior to imaging and biochemical analysis.
Quantification of lipid droplets was carried out using confocal and differential interface contrast (DIC) microscopy. Lipid droplets were stained with LipidTOX Red (Invitrogen) before adding OA or EPA. All images were visualized using a 63× oil immersion objective lens. Z-series stacks were acquired with 0.2 μm steps. […]

hepatic cells = assay: Hepatic glucose uptake (fluorescent 2-NBDG assay); assay type: cell-based; conditions: transfected cells treated with EPA
C57BL/6 mice = assay: Diet-induced fatty liver mouse model (high-fat-high-sucrose diet), Oil Red O; assay type: in vivo; conditions: adenovirus injected 1 day before HFHS diet for up to 4 days
Experimental: The respective Arl8b^T34N (DN), Arl8b^Q75L (DA), and Arl8b^WT constructs, along with empty virus (EV; control treatment) were injected into mice 1 day prior to feeding with a high fat diet for up to 4 days. The livers were stained with Oil Red O to determine the lipid contents, under the expression of various forms of Arl8b.
In these experiments, C57BL/6 mice were injected with adenovirus encoding different variants, namely Arl8b^T34N, Arl8b^Q75L, and Arl8b^WT. In these mice, expression of Arl8b proteins encoded by the adenoviral vectors lasts at least a few weeks. Thus, 1-day after viral injection, the mice were placed on a high-fat-high-sucrose (HFHS) diet for up to 4 days.

[4] = tested on: McA-RH7777 cells (A18-C3); assay: Live imaging of lysosomal motility and lysosome-CLD interaction (kiss-and-run); assay type: cell-based, rat; conditions: for effect on EPA-triggered lysosomal motility / lysosomal interaction with CLD: cells silenced, transfected or pre-treated (15 min) before EPA
Experimental: as §1
Cells were grown on 35-mm glass bottom dishes (Ibidi GmbH München, Germany) for 16 h in DMEM supplemented with FBS (20%) and OA (0.4 mM). Cells were imaged using a Zeiss 510 META laser scanning confocal microscope with a heated CO2-controlled stage (5% CO2 at 37° C.). Images were captured at a frame-rate of 30 frame/sec using a 63×. N.A.1.4 objective. Recommended laser lines and filter combinations were used for each dye. For visualization of lipid droplets, lysosomes, mitochondria, and mitochondrial β-oxidation, the respective reagents LipidTOX Red (Invitrogen), LysoTracker (Life Technology), MitoTracker (Life Technology), MitoSox Red (Invitrogen), and Peroxisome-GFP BacMam2.0 (Invitrogen) were introduced into the cells, according to manufacturers' recommendations, prior to EPA treatment.
Cells were cultured with lipid-rich media containing OA (0.4 mM) for 16 h. The lipid-laden cells were switched to fresh media containing EPA (0.4 mM) for 1 h, and the lysosomal movement towards lipid droplets was recorded by time-lapse microscopy. Fluorescent intensity of lysosomal signals at the periphery of selected individual lipid droplet was measured using Image J Live Intensity Profiler Plug-in^31-33 over a period of 40 sec. Quantification for each condition was carried out for 60 individual lipid droplets from three independent experiments. Constant threshold was applied to all of the images in each experiment.

## Arl8b^WT: wild-type ADP-ribosylation factor-like protein 8b, overexpressed from plasmid or adenovirus; tagged forms used
[1]; cells treated with OA
  binding to endogenous HOPS subunits: binds predominately to endogenous Vps41 and to a lesser extent Vps11
[1]; upon addition of EPA
  binding to endogenous HOPS subunits: binds to all three Vps proteins examined
[2]
  organellar association (lysosome vs CLD): dual presentation between lysosomes and CLD
[3]
  effect on EPA-induced lipid degradation (CLD turnover): An increase in lipid degradation
Hepatic cells
  glucose uptake: Low level of glucose uptake
C57BL/6 mice
  liver steatosis (Oil Red O): steatosis became apparent
[4]; GFP-tagged Arl8b-expressing cells, EPA
  duration of association between lysosomes and CLD (the on phase): approximately 15 seconds
[4]
  effect on EPA-triggered lysosomal motility / lysosomal interaction with CLD: does not affect lysosomal motility

B1: Vps11: HOPS subunit overexpressed from plasmid (GFP-tagged) (protein)
chain: AAYLQWRRFVFFEKELVKEPLGNDGATPGAAPTSGPTASKFLCLPPGITVCDSGRGSLVFGDMEGQIWFLPRSLQLTGFQAYKLRVTHLYQLKQHNILASVGEDEEGINPLVKIWNLEKRDGGNPLCTRILPAIPGTEPTVVSCLTVHENLNFMAIGFTDGSVTLNKGDITRDRHSKTQILHKGSYPVTGLAFRQAGKTTHLFVVTTENVQSYIVSGKDYPRVELDTHGCGLRCSALSDPSQDLQFIVAGDECVYLYQPDERGPCFAFEGHKLIAHWFRGYLVIVSRDRKVSPKSEFTSRDSQNSDKQILNIYDLCNKFIAYSAVFEDVVDVLAEWGSLYVLTRDGRVHALQEKDTQTKLEMLFKKNLFEMAINLAKSQHLDSDGLAQIFMQYGDHLYSKGNHDGAVQQYIRTIGKLEPSYVIRKFLDAQRIHNLTAYLQTLHRQSLANADHTTLLLNCYTKLKDSSKLEEFIKTKSESEVHFDVETAIKVLRQAGYYSHALYLAENHAHHEWYLKIQLEDIKNYQEALRYIGKLPFEQAESNMKRYGKILMHHIPEQTTQLLKGLCTDYRPSLEGRGDREFPSCRANSEEFIPIFANNPRELKAFLEHMSEVQPDSPQGIYDTLLELRLQNWAHEKDPQAKEKLHAEAISLLKSGRFCDVFDKALVLCQMHDFQDGVLYLYEQGKLFQQIMHYHMQHEQYRQVIAVCERHGEQEPSLWEQALSYFARKEEDCKEYVAAVLRHIENKSLMPPLLVVQTLAHNSTATLSIIRDYLVQKLQKQSQQIAQDELRVRRYREETTRIRQEIQELKASPKIFQKTKCSICNSALELPSVHFLCGHSFHQHCFESYSESDADCPTCLPENRKVMDMIRAQEQKRDLHDQFQHQLKCSNDSFSVIADYFGRGVFNKLTLLTDPPTARLTPSLEAGLQRDLLMHSRRGT
[3]
  effect on EPA-induced lipid degradation (CLD turnover): block lipid degradation
  effect on lipid degradation when co-expressed with Arl8b^WT, Arl8b^Q75L or Arl8b^T34N: invariably blocks lipid degradation
[4]
  effect on EPA-triggered lysosomal motility / lysosomal interaction with CLD: enhanced lysosomal-CLD interaction

B2: Vps39: HOPS subunit overexpressed from plasmid (GFP-tagged) (protein, UniProt Q96JC1 1-886, looked up)
Vam6/Vps39-like protein: MHDAFEPVPILEKLPLQIDCLAAWEEWLLVGTKQGHLLLYRIRKDVVPADVASPESGSCNRFEVTLEKSNKNFSKKIQQIHVVSQFKILVSLLENNIYVHDLLTFQQITTVSKAKGASLFTCDLQHTETGEEVLRMCVAVKKKLQLYFWKDREFHELQGDFSVPDVPKSMAWCENSICVGFKRDYYLIRVDGKGSIKELFPTGKQLEPLVAPLADGKVAVGQDDLTVVLNEEGICTQKCALNWTDIPVAMEHQPPYIIAVLPRYVEIRTFEPRLLVQSIELQRPRFITSGGSNIIYVASNHFVWRLIPVPMATQIQQLLQDKQFELALQLAEMKDDSDSEKQQQIHHIKNLYAFNLFCQKRFDESMQVFAKLGTDPTHVMGLYPDLLPTDYRKQLQYPNPLPVLSGAELEKAHLALIDYLTQKRSQLVKKLNDSDHQSSTSPLMEGTPTIKSKKKLLQIIDTTLLKCYLHTNVALVAPLLRLENNHCHIEESEHVLKKAHKYSELIILYEKKGLHEKALQVLVDQSKKANSPLKGHERTVQYLQHLGTENLHLIFSYSVWVLRDFPEDGLKIFTEDLPEVESLPRDRVLGFLIENFKGLAIPYLEHIIHVWEETGSRFHNCLIQLYCEKVQGLMKEYLLSFPAGKTPVPAGEEEGELGEYRQKLLMFLEISSYYDPGRLICDFPFDGLLEERALLLGRMGKHEQALFIYVHILKDTRMAEEYCHKHYDRNKDGNKDVYLSLLRMYLSPPSIHCLGPIKLELLEPKANLQAALQVLELHHSKLDTTKALNLLPANTQINDIRIFLEKVLEENAQKKRFNQVLKNLLHAEFLRVQEERILHQQVKCIITEEKVCMVCKKKIGNSAFARYPNGVVVHYFCSKEVNPADT
modifications: GFP tag
[3]
  effect on EPA-induced lipid degradation (CLD turnover): promotes the process
  effect on lipid degradation when co-expressed with Arl8b^WT, Arl8b^Q75L or Arl8b^T34N: promotes the process
[4]
  effect on EPA-triggered lysosomal motility / lysosomal interaction with CLD: does not interfere with termination of lysosomal lipid droplet engulfment process and dissociation from CLD
